The text below walks through data of PubChem BioAssay AID256 (DTP/NCI, 2004).

Several values for one entry are separate records, joined by “and”; a condition that tells them apart may be missing. Equal values may be shown once. Toxic doses and inconclusive results are not listed.

The assay has as its system CD2F1 mice, L1210 leukemia ip, survival T/C. Kind of assay: NCI In Vivo Anticancer Drug Screen. Data for tumor model L1210 Leukemia (intraperitoneal) in CD2F1 (CDF1) mice. Conditions: higher = longer survival. In a few lines: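 Read-out first: treated-group measurement over vehicle-control measurement, expressed as a ratio. Animals bore a transplanted tumor line and were dosed with compound or vehicle.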

The mark [1] stands for this setting: endpoint: mean survival time, dose: 100.0 mg/kg/injection, schedule: Q01DX009 (ip), vehicle: saline with Tween-80.
[2] abbreviates: endpoint: mean survival time, dose: 200.0 mg/kg/injection, schedule: Q01DX009 (ip), vehicle: saline with Tween-80.
[3] abbreviates: endpoint: mean survival time, dose: 400.0 mg/kg/injection, schedule: Q01DX009 (ip), vehicle: saline with Tween-80.
The mark [4] stands for this setting: endpoint: mean survival time, dose: 100.0 mg/kg/injection, schedule: Q04DX002 (ip), vehicle: saline with Tween-80.
[5] abbreviates: endpoint: mean survival time, dose: 200.0 mg/kg/injection, schedule: Q04DX002 (ip), vehicle: saline with Tween-80.
Where [6] appears, read: endpoint: mean survival time, dose: 400.0 mg/kg/injection, schedule: Q04DX002 (ip), vehicle: saline with Tween-80.
[7] abbreviates: endpoint: mean survival time, dose: 100.0 mg/kg/injection, schedule: Q01DX001 (ip), vehicle: saline with Tween-80.
Where [8] appears, read: endpoint: mean survival time, dose: 4.0 mg/kg/injection, schedule: Q01DX009 (ip), vehicle: saline.

As for `CC/C(=N/NS(=O)(=O)c1ccc(C)cc1)C(=O)O`, the T/C reads like this: (endpoint: mean survival time, dose: 12.5 mg/kg/injection, schedule: Q01DX009 (ip), vehicle: Klucel (hydroxypropylcellulose) (HPC)) 101 % of control; (endpoint: mean survival time, dose: 25.0 mg/kg/injection, schedule: Q01DX009 (ip), vehicle: Klucel (hydroxypropylcellulose) (HPC)) 98 % of control; (endpoint: mean survival time, dose: 50.0 mg/kg/injection, schedule: Q01DX009 (ip), vehicle: Klucel (hydroxypropylcellulose) (HPC)) 91 % of control; (endpoint: mean survival time, dose: 100.0 mg/kg/injection, schedule: Q01DX009 (ip), vehicle: Klucel (hydroxypropylcellulose) (HPC)) 96 % of control; (endpoint: mean survival time, dose: 200.0 mg/kg/injection, schedule: Q01DX009 (ip), vehicle: Klucel (hydroxypropylcellulose) (HPC)) 93 % of control; (endpoint: mean survival time, dose: 400.0 mg/kg/injection, schedule: Q01DX009 (ip), vehicle: Klucel (hydroxypropylcellulose) (HPC)) 91 % of control.
Take `Nc1c(C(=O)O)ncn1C1OC(CO)C(O)C1O` (configuration not stated): the T/C (endpoint: median survival time, dose: 7.88 mg/kg/injection, schedule: Q01DX005 (ip), vehicle: saline) was 101 % of control; the T/C (endpoint: median survival time, dose: 15.75 mg/kg/injection, schedule: Q01DX005 (ip), vehicle: saline) is 104 % of control; the T/C (endpoint: median survival time, dose: 31.5 mg/kg/injection, schedule: Q01DX005 (ip), vehicle: saline) is 104 % of control; the T/C (endpoint: median survival time, dose: 63.0 mg/kg/injection, schedule: Q01DX005 (ip), vehicle: saline) is 103 % of control; the T/C (endpoint: median survival time, dose: 126.0 mg/kg/injection, schedule: Q01DX005 (ip), vehicle: saline) is 92 % of control.
Consider `CN(CC(=O)O)C(=O)c1cc2ccccc2[nH]1`, for which the T/C is 101 % of control (endpoint: mean survival time, dose: 37.5 mg/kg/injection, schedule: Q04DX002 (ip), vehicle: saline with Tween-80); 89 % of control (endpoint: mean survival time, dose: 75.0 mg/kg/injection, schedule: Q04DX002 (ip), vehicle: saline with Tween-80); 93 % of control (endpoint: mean survival time, dose: 150.0 mg/kg/injection, schedule: Q04DX002 (ip), vehicle: saline with Tween-80).
With `COC(=O)C(C(=O)OC)=C(C(=O)OC)C(=O)OC`, the T/C by setting is: under setting [1], 96 % of control; under setting [2], 96 % of control; under setting [3], 94 % of control.
Consider `Cc1cn(C2CC(O)C(COP(N)(N)=O)O2)c(=O)[nH]c1=O` (configuration not stated), for which the T/C was 98 % of control (endpoint: mean survival time, dose: 12.5 mg/kg/injection, schedule: Q01DX005 (ip), vehicle: distilled water + Tween-80); 98 % of control (endpoint: mean survival time, dose: 25.0 mg/kg/injection, schedule: Q01DX005 (ip), vehicle: distilled water + Tween-80); 98 % of control (endpoint: mean survival time, dose: 50.0 mg/kg/injection, schedule: Q01DX005 (ip), vehicle: distilled water + Tween-80); 96 % of control (endpoint: mean survival time, dose: 100.0 mg/kg/injection, schedule: Q01DX005 (ip), vehicle: distilled water + Tween-80); 98 % of control (endpoint: mean survival time, dose: 200.0 mg/kg/injection, schedule: Q01DX005 (ip), vehicle: distilled water + Tween-80).
As for `O=C1OC(/C=C\c2ccccc2)=NC/1=C\c1cc(Br)cc(Br)c1O`, the T/C by setting is: under setting [4], 94 % of control; under setting [5], 98 % of control; under setting [6], 105 % of control.
`CC1CC(C)(C)OC(C(C)C)O1` (configuration not stated): the T/C is, setting by setting: under setting [4], 96 % of control; under setting [5], 96 % of control; under setting [6], 96 % of control.
Regarding `CC(C)OC(=O)Nc1ccc(F)cc1`, the T/C is 94 % of control (endpoint: mean survival time, dose: 100.0 mg/kg/injection, schedule: Q01DX009 (ip), vehicle: other); 91 % of control (endpoint: mean survival time, dose: 200.0 mg/kg/injection, schedule: Q01DX009 (ip), vehicle: other); 100 % of control (endpoint: mean survival time, dose: 400.0 mg/kg/injection, schedule: Q01DX009 (ip), vehicle: other).
For the molecule `CC(c1ccccc1)n1cncc1CN1CCOCC1` (configuration not stated), the T/C is 91 % of control (endpoint: mean survival time, dose: 12.5 mg/kg/injection, schedule: Q04DX002 (ip), vehicle: saline with Tween-80); 102 % of control (endpoint: mean survival time, dose: 25.0 mg/kg/injection, schedule: Q01DX001 (ip), vehicle: saline with Tween-80); 98 % of control (endpoint: mean survival time, dose: 25.0 mg/kg/injection, schedule: Q04DX002 (ip), vehicle: saline with Tween-80); 102 % of control (endpoint: mean survival time, dose: 50.0 mg/kg/injection, schedule: Q01DX001 (ip), vehicle: saline with Tween-80); 98 % of control (endpoint: mean survival time, dose: 50.0 mg/kg/injection, schedule: Q04DX002 (ip), vehicle: saline with Tween-80); 95 % of control and 98 % of control under setting [7]. Further, the T/C under setting [4] was 95 % of control.
In the case of `COc1ccc(C(=O)C(C)(C)C)cc1`, the T/C is 108 % of control under setting [4] and 97 % of control under setting [5].
In the case of `CC1=Nc2cc(C)c(C)cc2N2C1=CC1=C(C(=O)c3cc4ccccc4cc3C1=O)C2C` (configuration not stated), the T/C (endpoint: mean survival time, dose: 25.0 mg/kg/injection, schedule: Q04DX003 (ip), vehicle: saline with Tween-80) is 97 % of control; the T/C (endpoint: mean survival time, dose: 50.0 mg/kg/injection, schedule: Q04DX003 (ip), vehicle: saline with Tween-80) is 108 % of control; the T/C (endpoint: mean survival time, dose: 100.0 mg/kg/injection, schedule: Q04DX003 (ip), vehicle: saline) was 110 % of control; the T/C (endpoint: mean survival time, dose: 200.0 mg/kg/injection, schedule: Q04DX003 (ip), vehicle: saline) is 107 % of control.
With `COc1cccc(C(=O)c2ccncc2C)c1OC`, the T/C is, setting by setting: (endpoint: mean survival time, dose: 12.5 mg/kg/injection, schedule: Q01DX009 (ip), vehicle: water) 89 % of control; (endpoint: mean survival time, dose: 25.0 mg/kg/injection, schedule: Q01DX009 (ip), vehicle: water) 93 % of control; (endpoint: mean survival time, dose: 50.0 mg/kg/injection, schedule: Q01DX009 (ip), vehicle: water) 93 % of control; (endpoint: mean survival time, dose: 100.0 mg/kg/injection, schedule: Q01DX009 (ip), vehicle: water) 93 % of control; (endpoint: mean survival time, dose: 200.0 mg/kg/injection, schedule: Q01DX009 (ip), vehicle: water) 96 % of control.
For `O=C(O)CCCCCCCCC1CC(F)(F)C(F)(F)S1` (configuration not stated), the T/C reads like this: under setting [1], 98 % of control; under setting [2], 92 % of control; under setting [3], 95 % of control.
Consider `COc1cc(NC(N)=O)ccc1Nc1c2ccc(N)cc2nc2cc(N)ccc12`, for which the T/C is, setting by setting: (endpoint: mean survival time, dose: 0.5 mg/kg/injection, schedule: Q01DX009 (ip), vehicle: saline) 100 % of control; (endpoint: mean survival time, dose: 1.0 mg/kg/injection, schedule: Q01DX009 (ip), vehicle: saline) 98 % of control; (endpoint: mean survival time, dose: 2.0 mg/kg/injection, schedule: Q01DX009 (ip), vehicle: saline) 102 % of control; under setting [8], 102 % of control; (endpoint: mean survival time, dose: 8.0 mg/kg/injection, schedule: Q01DX009 (ip), vehicle: saline) 103 % of control; (endpoint: mean survival time, dose: 16.0 mg/kg/injection, schedule: Q01DX009 (ip), vehicle: saline) 111 % of control.
As to `COc1cc[n+](C)cc1`, the T/C (endpoint: mean survival time, dose: 100.0 mg/kg/injection, schedule: Q04DX002 (ip), vehicle: saline) was 100 % of control; the T/C (endpoint: mean survival time, dose: 200.0 mg/kg/injection, schedule: Q04DX002 (ip), vehicle: saline) is 91 % of control; the T/C (endpoint: mean survival time, dose: 400.0 mg/kg/injection, schedule: Q04DX002 (ip), vehicle: saline) is 95 % of control.
Take `COc1ccc2[nH]c3cc(Cl)ccc3c(=O)c2c1`: the T/C is, setting by setting: under setting [7], 87 % of control; (endpoint: mean survival time, dose: 400.0 mg/kg/injection, schedule: Q01DX001 (ip), vehicle: saline with Tween-80) 90 % of control.
On to `COc1cc(C(=O)NCCCCCC(=O)O)cc(OC)c1OC`, for which the T/C reads like this: under setting [4], 91 % of control; under setting [5], 95 % of control; under setting [6], 88 % of control.
As to `COC1(O)C(=O)c2ccccc2OC1(OC)c1ccc(Cl)cc1` (configuration not stated), the T/C runs as follows: (endpoint: mean survival time, dose: 50.0 mg/kg/injection, schedule: Q01DX001 (ip), vehicle: saline) 98 % of control; (endpoint: mean survival time, dose: 100.0 mg/kg/injection, schedule: Q01DX001 (ip), vehicle: saline) 102 % of control; (endpoint: mean survival time, dose: 200.0 mg/kg/injection, schedule: Q01DX001 (ip), vehicle: saline) 98 % of control; (endpoint: mean survival time, dose: 400.0 mg/kg/injection, schedule: Q01DX001 (ip), vehicle: saline) 98 % of control.
In the case of `CN(CCCCN(C)CCOS(C)(=O)=O)CCOS(C)(=O)=O`, the T/C was 112 % of control (endpoint: mean survival time, dose: 0.4 mg/kg/injection, schedule: Q01DX009 (ip), vehicle: saline); 115 % of control (endpoint: mean survival time, dose: 0.8 mg/kg/injection, schedule: Q01DX009 (ip), vehicle: saline); 110 % of control (endpoint: mean survival time, dose: 3.6 mg/kg/injection, schedule: Q01DX001 (ip), vehicle: saline); 103 % of control under setting [8]; 118 % of control (endpoint: mean survival time, dose: 8.3 mg/kg/injection, schedule: Q01DX001 (ip), vehicle: saline); 150 % of control (endpoint: mean survival time, dose: 12.5 mg/kg/injection, schedule: Q01DX001 (ip), vehicle: saline). The T/C (endpoint: mean survival time, dose: 25.0 mg/kg/injection, schedule: Q01DX001 (ip), vehicle: saline) was 156 % of control.
